Assay results published in publication PMC8078777 (PLoS Pathogens, 2021).
≈ marks a conversion by molar mass, not a printed value. Where “and” joins values, the source holds several entries; their conditions need not be identical. Equal values may be shown once. Entries after “also recorded” stand apart in the source; their conditions may differ.

Tests used:
Caco-2 cells = assay: Caco-2 cell toxicity, MTT assay; format: cell-based, human; settings: overnight
Experimental: (§1) Caco-2 cells were seeded onto microtiter 96-well plates at a density of 70,000 cells/mL in 50 µL of minimal essential medium (Sigma) supplemented with 10% fetal bovine serum (Sigma), 1% L-glutamine (Gibco), and 1% non-essential amino acids (Sigma). Cells were incubated for two days at 37 °C in a humidified atmosphere containing 5% CO2. Then the cells were treated with the selected compounds at different concentrations: 6G7 and 6C3 were added at concentrations of 0.0625, 0.125, 0.25, 0.5, 1, and 2 mM, and 7C8 at concentrations of 3.125, 6.25, 12.5, 25, 50, and 100 μM. The final DMSO concentration in the medium was adjusted as indicated by the solubility of individual compounds and was reduced proportionally with serial dilutions. The highest DMSO concentration in assays was 5%. After overnight incubation, the cell viability was assessed by the MTT assay. Briefly, 3-(4,5-dimethylthiazol-2-yl)-2,5-diphenyltetrazolium bromide (MTT) reagent was added to each well at a final concentration of 1 mg/mL and incubated for 3 h. The medium was then removed, and the formazan product of living cells was dissolved in DMSO. The absorbance was measured at 570 nm with a Fluostar Galaxy microplate reader. Three independent experiments with the compounds 6C3 and 7C8 and four independent experiments with the compound 6G7 were performed.

tobacco leaves = assay: Tobacco leaf infiltration assay, compounds alone; format: in vivo, Nicotiana tabacum; settings: 1 mM compound in 5% DMSO, 24 h
Experimental: (§2) Tobacco plants (Nicotiana tabacum ‘White Burley’) were grown in a controlled growth chamber with supplementary light (70−90 μMm^-2s^-1) and a 16 h photoperiod with 22°C day and 20°C night temperatures at 75±2% humidity. Using blunt-ended syringe pressure infiltration, 100 μL of solution (either 400 nM NLPPp or 250 nM NLPPya in ultrapure water in the absence or presence of the compounds) was infiltrated abaxially into the leaves of 5−7-week-old tobacco plants (Nicotiana tabacum ‘White Burley’). 5% DMSO, NLP solutions, and appropriate compound dilutions were used as controls. The area on the upper side of the leaf, which was infiltrated with solutions, was labeled and checked for the presence of necrosis after 24 h. To thoroughly assess the effect of compound 6G7 on the level of leaf necrosis/chlorosis, 50 μL of 100 nM NLPPya solution without/with 500 μM or 1 mM 6G7 in 20 mM MES, 150 mM NaCl, pH 5.8, containing 10% DMSO was infiltrated. The level of leaf chlorosis was estimated using ImageJ software by calculating the ratio of the chlorotic area to the whole infiltrated area, both measured in squared pixels. Each value represents the average of sixteen infiltrations.

NLPPya [1] = biological target: T1, NLPPya (Pythium aphanidermatum, UniProt Q9SPD4); assay: Tobacco leaf infiltration assay, NLPPya-induced necrosis/chlorosis; format: in vivo; settings: 24 h; for effect on NLPPya-induced necrosis: 200 nM NLPPya, tobacco leaves
T1 sequence (Q9SPD4 18-234 limits assumed): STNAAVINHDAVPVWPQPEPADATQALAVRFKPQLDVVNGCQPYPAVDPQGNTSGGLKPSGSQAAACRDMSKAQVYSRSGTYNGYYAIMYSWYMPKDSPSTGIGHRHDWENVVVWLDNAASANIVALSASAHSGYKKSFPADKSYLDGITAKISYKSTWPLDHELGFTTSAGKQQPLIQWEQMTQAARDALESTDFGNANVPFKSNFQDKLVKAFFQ
Experimental: as §2, with “([…]” for “(either 400 nM NLPPp or 250 nM NLPPya in ultrapure water in the absence or presence”, “To thoroughly assess the effect of compound 6G7 on the level of leaf necrosis/chlorosis, 50 μL of 100 nM NLPPya solution without/with 500 μM or 1 mM 6G7 in 20 mM MES, 150 mM NaCl, pH 5.8, containing 10% DMSO was infiltrated.” left out

Phytophthora infestans = format: in vivo; settings: for P. infestans infection spots on potato leaves (size and coloring): 1 mM compound applied with zoospores, 4 days; for P. infestans growth on potato leaves by real-time PCR: 1 mM compound, 4 days after infection, vs control compound 6E11
NLPPya [2] = biological target: T1, NLPPya; assay: Surface plasmon resonance binding to immobilized NLPPya; settings: for SPR binding to NLPPya (in words): sensor-chip-immobilized NLPPya; for Kd: SPR, steady-state affinity model, 50 mM MES, 150 mM NaCl, 5% DMSO, pH 5.8
Experimental: Biacore T100 equipped with the Series S Sensor chip CM5 (GE Healthcare) was used to assess the binding of compounds to NLPPya and NLPPp. The proteins were covalently immobilized to the chip using amine coupling. The surface was activated with a 10 min injection of a mixture of 1-ethyl-3-(3-dimethylaminopropyl) carbodiimide hydrochloride / N-hydroxysuccinimide (1:1). NLPs were immobilized on the second flow cell. The first flow cell was left empty to control any nonspecific compound binding to the dextran matrix. […] In total, 587 in-house compounds (Faculty of Pharmacy, University of Ljubljana) were dissolved in DMSO as stock solutions at a concentration of 10 mM and diluted in 50 mM 2-(N-morpholino)ethanesulfonic acid (MES) and 150 mM NaCl to a final concentration of 5% DMSO (pH 5.8) prior to SPR experiments. After washing the sensor surface with running buffer (50 mM MES, 150 mM NaCl, 5% DMSO, pH 5.8), the compounds were tested at two different concentrations: 20 and 200 μM. Certain compounds were tested at lower concentrations owing to their lower solubility in the running buffer. Each compound was injected for 1 min at a flow rate of 30 μL/min, and dissociation was monitored for another minute. […] In the next set of experiments, 67 selected compounds were titrated. The samples were injected for 1 min at a flow rate of 30 μL/min, and dissociation was monitored for another minute. The samples were typically injected at the following concentrations: 0, 12.5, 25, 50, 100, and 200 μM. At the end of each concentration series, 25 μM of compound was injected again to control the activity of the surface. Regeneration between individual injections was not needed for molecules that completely dissociated from the protein. When complete dissociation was not achieved, short pulses of 0.1% SDS were included. The obtained sensorgrams were analyzed using the Biacore T100 Evaluation software, and the steady-state affinity binding model was used to calculate affinity constants.

NLPPya [3] = biological target: T1, NLPPya; assay: STD-NMR binding to NLPPya; settings: 25°C
Experimental: STD-NMR experiments were performed with 8 μM NLPPya. A pseudo-2D version of a STD-NMR pulse sequence with DPFGSE water suppression for the interleave acquisition of on- (δ 0.2 ppm) and off-resonance (δ 40 ppm) spectra was used at 25°C with 512 scans. A 30 ms spin-lock filter was used for protein signal suppression. The STD spectra were obtained by subtracting the saturated spectra from the reference spectra. The STD effect was calculated by (I0-Isat)/I0, where I0 is the signal intensity in the off-resonance spectrum, Isat is the signal intensity in the on-resonance spectrum, and I0-Isat is the intensity of the STD-NMR spectrum. Appropriate control experiments in the absence of protein were performed to assure the absence of direct irradiation of the ligand. In the titration study, five STD experiments were performed with varying ligand concentrations (40, 80, 240, 400, and 560 μM).
The STD amplification factor (STD-AF) was determined according to Eq 1, where [L] is the ligand concentration, and [P] is the NLPPya concentration.
The hyperbolic behavior of the curves obtained from plotting STD-AF as a function of ligand concentration is appropriately described by Eq 2, where STD-AF is the STD amplification factor, αSTD is the maximum amplification factor, [L] is the ligand concentration, and KD is the dissociation constant. […]

NLPPya [4] = biological target: T1, NLPPya; assay: Ion leakage from tobacco leaf disks induced by NLPPya; format: in vivo; settings: 100 nM NLPPya, conductivity after 2 h
Experimental: Tobacco leaves were infiltrated with 100 nM NLPPya in 20 mM MES, 150 mM NaCl pH 5.8, preincubated for 10 min with 500 μM or 1 mM 6G7. Final concentration of DMSO in solution was 10%. After 10 min incubation, 2 leaf disks were punched out (Ø 6 mm) and transferred to 2 mL of deionized distilled water. After 30 min of shaking at 430 rpm, leaf disks were transferred to 1 mL of fresh deionized distilled water. Conductivity was measured after 2 h using SevenCompact Cond meter (Mettler Toledo). Mock treated samples were discs from leaves infiltrated with buffer containing 10% DMSO or 6G7. Each value represents the average of 12–18 independent experiments.

[5] = Caco-2 cell toxicity, MTT assay; format: cell-based, human; settings: human, Caco-2, 12.5 μM, overnight, read-out: Caco-2 cell viability, of the untreated control
Experimental: as §1

[6] = Solubility in SPR running buffer; format: physicochemical; settings: SPR running buffer containing 5% DMSO

| Structure (SMILES) | reduction of Caco-2 cell viability (Caco-2 cells; 1 mM) [%] | reduction of Caco-2 cell viability (Caco-2 cells; 2 mM) [%] | effect on Caco-2 cell viability (Caco-2 cells; concentrations below 500 μM) | toxic effects of compound alone on leaf tissue (tobacco leaves) | effect on NLPPya-induced necrosis (NLPPya [1]; 1 mM compound) | P. infestans infection spots on potato leaves (size and coloring) (Phytophthora infestans) | P. infestans growth on potato leaves by real-time PCR (Phytophthora infestans) | SPR binding to NLPPya (in words) (NLPPya [2]) | effect on Caco-2 cell viability (Caco-2 cells; up to concentrations approximately 10 times higher than its KD for NLPs) | STD signals in the presence of NLPPya (NLPPya [3]; 400 μM ligand, 1:50 receptor-to-ligand ratio) | Kd (NLPPya [3]; STD-NMR titration, 8 μM NLPPya) [µM] | NLPPya-induced leaf chlorosis (NLPPya [1]; 100 nM NLPPya, 1 mM compound, buffer with 10% DMSO) | ion leakage induced by NLPPya from tobacco cells (NLPPya [4]; 500 μM compound) | ion leakage induced by NLPPya from tobacco cells (NLPPya [4]; 1 mM compound) | Kd (NLPPya [2]) | viability at 12.5 µM [5] [%] | reduction of Caco-2 cell viability (Caco-2 cells; 3.125 μM) [%] | effect on NLPPya-induced necrosis (NLPPya [1]; 200 μM compound) | solubility limit [6] | solubility ([6]; pH 5.8, aqueous with cosolvent or surfactant or cyclodextrin, kinetic from dmso stock, read-out: solubility limit) [µM] |
| --- | --- | --- | --- | --- | --- | --- | --- | --- | --- | --- | --- | --- | --- | --- | --- | --- | --- | --- | --- | --- |
| Cc1ccc2occ(C3N[C@H](C(=O)O)CS3)c(=O)c2c1 (stereo partly drawn) [6C3, (4R)-2-(6-methyl-4-oxo-4H-chromen-3-yl)thiazolidine-4-carboxylic acid] | 8 | 15 | did not affect cell viability | did not affect the plant tissue | inhibited | largely reduced or disappeared | significantly reduced | stable binding |  |  |  |  |  |  |  |  |  |  |  |  |
| Cc1oc([C@@H](O)[C@H](O)[C@H](O)CO)cc1C(=O)O [6E11, 2-methyl-5-((1S,2R,3R)-1,2,3,4-tetrahydroxybutyl)furan-3-carboxylic acid, reference compound] |  |  |  | did not affect the plant tissue |  |  |  | did not bind |  |  |  |  |  |  |  |  |  |  |  |  |
| COc1ccc(Nc2ccccc2C(=O)O)cc1 [6G7, 2-((4-methoxyphenyl)amino)benzoic acid] |  |  |  | did not affect the plant tissue | inhibited | largely reduced or disappeared | significantly reduced; also recorded: significantly inhibited |  | did not affect cell viability; also recorded: non-toxic | clear STD signals | 150 ± 7 | efficiently reduced | efficiently inhibit | efficiently inhibit | 131 ± 36.4 µM |  |  |  |  |  |
| O=C(Cc1c[nH]c2ccccc12)Nc1ccccc1CCOC(=O)Cc1c[nH]c2ccccc12 [7C8, 2-(2-(1H-indol-3-yl)acetamido)phenethyl 2-(1H-indol-3-yl)acetate] |  |  |  | did not affect the plant tissue |  | largely reduced or disappeared | significantly reduced |  |  |  |  |  |  |  | 52.8 µM and ~50 µM | 20 | 35 | inhibited | poorly soluble at concentrations of >180 | ~180 (≈ 81.3 µg/mL) |
